Patent EP0591583B1, “Benzo (f) quinolinones as 5-alpha-reductase inhibitors” (ELI LILLY AND COMPANY, priority 1992, dated 1994)
Read-outs that look alike come from different tables or passages of the source.

Molecular target: T1, 5α-reductase (Homo sapiens, UniProt P18405)
T1 construct: host or cells: Hs68 human genital skin fibroblasts
T1 sequence (P18405 1-259): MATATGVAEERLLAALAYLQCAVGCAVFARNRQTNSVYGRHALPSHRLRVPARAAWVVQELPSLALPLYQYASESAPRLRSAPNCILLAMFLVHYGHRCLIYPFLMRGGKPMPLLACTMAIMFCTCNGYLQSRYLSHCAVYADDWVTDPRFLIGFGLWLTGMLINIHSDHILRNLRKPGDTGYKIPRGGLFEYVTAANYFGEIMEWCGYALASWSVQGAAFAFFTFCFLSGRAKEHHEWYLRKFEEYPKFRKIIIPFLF
Experiment: 5α-Reductase activity in Hs68 human genital skin fibroblasts (conversion of labeled testosterone, TLC analysis)
Type: cell-based
Description: Cell Culture: 5α-Reductase activity was measured using Hs68 human genital skin fibroblasts which were originally purchased from the American Type Culture Collection (Rockville, MD). The cells were grown in Dulbecco's Modified Eagle's Medium (DMEM) plus 10% stripped fetal bovine serum which was supplemented with amphotericin B ([…]) and gentamicin ([…]) (GIBCO, Grand Island, NY). The serum was stripped of endogenous steroids by incubation with dextran-coated charcoal prior to its addition to the media. The cells were maintained at 37°C in an atmosphere of 95% air, 5% CO2 and were passaged every 7-10 days by exposure to a trypsin-EDTA solution (0.025% trypsin, 0.265 mM EDTA). Prior to the assay the Hs68 cells were harvested and plated in Falcon 6-well plates (Becton Dickinson Labware, Lincoln Park, NJ) at a density of 6 x 10^4 cells per well. The cells were allowed to grow for 4-5 days or until they reached approximately 80% confluence.
Assay Method I: The substrate was prepared by dissolving unlabeled testosterone (Sigma Chemical Co., St. Louis, MO) in absolute ethanol followed by the addition of [7-^3H (N)]-testosterone (23.3 Ci/mmole, New England Nuclear, Boston, MA). The steroid solution was taken to dryness under a stream of nitrogen and then reconstituted in media.
Assay Method II: The substrate used for this method was [^14C]-testosterone (50 mCi/mmol) (New England Nuclear, Boston, MA). An aliquot of the substrate was taken to dryness under a stream of nitrogen. After the addition of 30 µl of ethanol, the testosterone was dissolved in an appropriate volume of media.
Sample Preparation: The test compounds were brought up in absolute ethanol in order to achieve the desired concentration. Subsequent dilutions of the test compounds with media were performed by the Biomek 1000 Automated Laboratory Workstation (Beckman Instruments, Palo Alto, CA). The existing media in the sample wells was aspirated and replaced with fresh media. Test compound was then added to the wells followed by the addition of 0.5 ml of substrate. The volume of the incubation mixture was maintained at 2.0 ml. The final substrate concentration was 12 µM. The concentration of the test compounds ranged from 0.001-150 µM. An additional three wells (background) containing media and substrate but no cells were also included to account for the non-enzymatic metabolism of the substrate. The plates were returned to the incubator and incubated for four hours.
At the end of the incubation the media was collected and transferred to an extraction tube containing 5 ml of toluene-ethanol (9:1), to which has been added 20-250 µg each of unlabeled carrier steroids (estriol, estradiol, estrone, 5α-androstan-3α,17β-diol, 5α-androstan-3β,17β-diol, 4-androstene-3,17-dione, 5α-androstan-3,17-dione, testosterone, and 5α-dihydrotestosterone) (Steraloids, Inc., Wilton, NH). In the case of Assay Method I the extraction tube also contained 1,000 and 10,000 dpm of [4-^14C]-dihydrotestosterone (50-60 mCi/mmol) and [4-^14C]-testosterone (50 mCi/mmol) (New England Nuclear, Boston, MA), respectively. The [^14C]-steroids were included as recovery standards to quantify procedural losses. A small amount of NaCl was also added to the extraction tubes to prevent foaming. The samples were vortexed for approximately 30 seconds and then centrifuged for 10 minutes at 500 x g. The organic phase was collected and the samples taken to dryness, redissolved in dichloromethane-methanol (9:1) and were analyzed by thin layer chromatography using one of the methods described below.
Chromatography Method I (two-dimensional): The extracted samples were appled to silica gel 60F254, 0.25 mm thick, thin layer chromatography plates (EM Science, Cincinnati, OH). The plates were developed in the first dimension with a solvent system containing dichloromethane-ethyl acetate-methanol-acetic acid (160:38:1.5:0.5, Mallinckrodt Inc., Paris, KY).

[1] = Hs68, test compound 1.00 µM, Hs68 cells, substrate testosterone 12 µM, incubated four hours, read-out: % Inhibition
[2] = Hs68, test compound 0.316 µM, Hs68 cells, substrate testosterone 12 µM, incubated four hours, read-out: % Inhibition

COc1ccc2c(c1)CCC1NC(=O)CCC21 (racemic) [Example 18, trans-dl-8-methoxy-1,2,3,4,4a,5,6,10b-octahydrobenzo[f]quinolin-3-one]
inhibition at 1 µM [1]: 69.8%

O=C1CCC2c3ccc(F)cc3CCC2N1 (racemic) [Example 15, trans-dl-8-fluoro-1,2,3,4,4a,5,6,10b-octahydrobenzo[f]quinolin-3-one]
inhibition at 3.16 µM (Hs68, test compound 3.16 µM, Hs68 cells, substrate testosterone 12 µM, incubated four hours): 100%

COc1ccc(CN2C(=O)CC[C@]3(C)c4ccc(Cl)cc4CC[C@@H]23)cc1 [Example 44]
inhibition at 0.316 µM (test compound 0.316 µM, Hs68 cells, substrate testosterone 12 µM, incubated four hours, read-out: % Inhibition): 5.7%

O=C1CC[C@@H]2c3ccc(Br)cc3CC[C@H]2N1 (racemic) [Example 2, trans-dl-8-bromo-1,2,3,4,4a,5,6,10b-octahydrobenzo[f]quinolin-3-one]
inhibition at 1 µM [1]: 100%

CCOC(=O)CCc1ccc2c(c1)CCC1C2CCC(=O)N1C (racemic) [Example 22, trans-dl-8-ethoxycarbonylethanediyl-4-methyl-1,2,3,4,4a,5,6,10b-octahydrobenzo[f]quinolin-3-one]
inhibition at 0.316 µM [2]: 40.7%

CN1C(=O)C=C[C@@H]2c3ccc(Br)cc3CC[C@H]21 (racemic) [Example 51, trans-dl-8-bromo-4-methyl-3,4,4a,5,6,10b-hexahydrobenzo[f]quinolin-3-one]
inhibition at 1 µM [1]: 95.1%

CCOC(=O)c1ccc2c(c1)CC[C@@H]1[C@@H]2CCC(=O)N1C (racemic) [Example 58, trans-dl-8-ethoxycarbonyl-4-methyl-1,2,3,4,4a,5,6,10b-octahydrobenzo[f]quinolin-3-one]
inhibition at 0.316 µM [2]: 65.7%

CN1C(=O)CC[C@@H]2c3ccc(Cl)cc3CC[C@H]21 [Example 64, (-)-(4aR)-(10bR)-8-chloro-4-methyl-1,2,3,4,4a,5,6, lOb-octahydrobenzo[f]quinolin-3-one]
inhibition at 0.316 µM (Hs68, test compound 0.316 µM, Hs68 cells, substrate testosterone 12 µM, incubated four hours): 91.5%

COc1ccc2c(c1)CCC1C2CCC(=O)N1C (racemic) [Example 19, trans-dl-8-methoxy-4-methyl-1,2,3,4,4a,5,6,10b-octahydrobenzo[f]quinolin-3-one]
inhibition at 1 µM [1]: 93.2%

CN1C(=O)CC[C@@H]2c3ccc(CCC(=O)NC(C)(C)C)cc3CC[C@H]21 (racemic) [Example 55, trans-dl-8-t-butylaminocarbonylethanediyl-4-methyl-1,2,3,4,4a,5,6,10b-octahydrobenzo[f]quinolin-3-one]
inhibition at 0.316 µM [2]: 17.3%

CN1C(=O)CC[C@@H]2c3ccc(Cl)cc3CC[C@H]21 (racemic) [Example 6, trans-dl-8-chloro-4-methyl-1,2,3,4,4a,5,6,10b-octahydrobenzo[f]quinolin-3-one]
inhibition at 1 µM (Hs68): 100%

Cc1ccc2c(c1)CC[C@H]1[C@@H]2CCC(=O)N1C (racemic) [Example 9, cis-dl-4,8-dimethyl-1,2,3,4,4a,5,6,10b-octahydrobenzo[f]quinolin-3-one]
inhibition at 1 µM [1]: 100%

CC(C)(C)c1ccc2c(c1)CCC1NC(=O)CCC21 (racemic) [Example 30, trans-dl-8-t-butyl-1,2,3,4,4a,5,6,10b-octahydrobenzo[f]quinolin-3-one]
inhibition at 0.316 µM [2]: 38.5%

C[C@]12CCC(=O)N[C@@H]1CCc1ccccc12 (racemic) [Example 36, trans-dl-10b-methyl-1,2,3,4,4a,5,6,10b-octahydrobenzo[f]quinolin-3-one]
inhibition at 150 µM (Hs68, test compound 150.00 µM, Hs68 cells, substrate testosterone 12 µM, incubated four hours): 43.9%

CN1C(=O)CC[C@@H]2c3cc([N+](=O)[O-])ccc3CC[C@H]21 (racemic) [Example 47, trans-dl-9-nitro-4-methyl-1,2,3,4,4a,5,6,10b-octahydrobenzo[f]quinolin-3-one]
inhibition at 0.316 µM [2]: 49.7%

CN1C(=O)CC=C2c3ccc(Cl)cc3CCC21 (racemic) [Example 53, dl-8-chloro-4-methyl-2,3,4,4a,5,6-hexahydrobenzo[f]quinolin-3-one]
inhibition at 0.316 µM [2]: 74.8%

CN1C(=O)CC[C@]2(C)c3ccccc3CC[C@@H]12 (stereo in doubt) [Example 37, trans-dl-4,10b-dimethyl-1,2,3,4,4a,5,6,10b-octahydrobenzo[f]quinolin-3-one]
inhibition at 1 µM (test compound 1.00 µM, Hs68 cells, substrate testosterone 12 µM, incubated four hours, read-out: % Inhibition): 40%

O=C1CCC2c3ccccc3CCC2N1 (racemic) [Example 14, cis-dl-1,2,3,4,4a,5,6,10b-octa-hydrobenzo[f]quinolin-3-one]
inhibition at 15 µM (Hs68, test compound 15.00 µM, Hs68 cells, substrate testosterone 12 µM, incubated four hours): 31.7%

O=C1CC=C2c3ccc(Cl)cc3CCC2N1 (racemic) [Example 50B, dl-8-chloro-2,3,4,4a,5,6-hexahydrobenzo[f]quinolin-3-one]
inhibition at 0.316 µM [2]: 84%

CCOC(=O)C=Cc1ccc2c(c1)CCC1C2CCC(=O)N1C (racemic) [Example 16, trans-dl-8-ethoxycarbonylethenediyl-4-methyl-1,2,3,4,4a,5,6,10b-octahydrobenzo[f]quinolin-3-one]
inhibition at 0.316 µM [2]: 80%

CC1CC2c3ccc(Cl)cc3CCC2N(C)C1=O (racemic) [Example 26B, trans-dl-8-chloro-2-(β-methyl)-4-methyl-1,2,3,4,4a,5,6,10b-octahydrobenzo[f]quinolin-3-one]
% Inhibition (test compound 0.316 µM, Hs68 cells, substrate testosterone 12 µM, incubated four hours): 76.36%

O=C1CCC2c3ccc(Cl)cc3CCC2N1 (racemic) [Example 17, trans-dl-8-chloro-1,2,3,4,4a,5,6,10b-octahydrobenzo[f]quinolin-3-one]
inhibition at 1 µM [1]: 100%

CN1C(=O)CC[C@@H]2c3ccc(F)cc3CC[C@H]21 (racemic) [Example 10, trans-dl-8-fluoro-4-methyl-1,2,3,4,4a,5,6,10b-octahydrobenzo[f]quinolin-3-one]
inhibition at 1 µM [1]: 100%

C[C@@H]1C[C@@H]2c3ccc(Cl)cc3C=C[C@H]2N(C)C1=O (racemic) [Example 54, trans-dl-8-chloro-2-a-methyl-4-methyl-1,2,3,4,4a,10b-hexahydrobenzo[f]quinolin-3-one]
inhibition at 0.316 µM [2]: 73.8%

CN1C(=O)CC[C@H]2c3ccc(Cl)cc3CC[C@@H]21 [Example 65, (+)-(4aS)-(10bS)-8-chloro-4-(methyl)-1,2,3,4,4a,5,6,10b-octahydrobenzo[f]quinolin-3-one]
inhibition at 0.316 µM [2]: 95.6%

CN1C(=O)CC[C@@H]2c3cc(N)ccc3CC[C@H]21 (racemic) [Example 48, trans-dl-9-amino-4-methyl-1,2,3,4,4a,5,6,10b-octahydrobenzo[f]quinolin-3-one]
inhibition at 0.316 µM [2]: 4.36%

O=C1C=C[C@@H]2c3ccc(Cl)cc3CC[C@H]2N1 (racemic) [Example 50A, trans-dl-8-chloro-3,4,4a,5,6,10b-hexahydrobenzo[f]quinolin-3-one]
inhibition at 0.316 µM [2]: 83.3%

CN1C(=O)CC[C@@H]2c3ccc(-c4ccccc4)cc3CC[C@H]21 (racemic) [Example 56, trans-dl-8-phenyl-4-methyl-1,2,3,4,4a,5,6,10b-octahydrobenzo[f]quinolin-3-one]
inhibition at 0.316 µM [2]: 74.8%
